Results on six compounds are retold here after ChEMBL document CHEMBL5321242, “Design and synthesis of 4-acetoxypentanamide derivatives of spliceostatin A and their biological evaluation towards prostate cancer treatment” (Bioorg Med Chem Lett, 2023).

One data set concerns PNT2. Nature of the data set: Cytotoxicity against human PNT2 cells assessed as reduction in cell viability upto 200 nM by MTS assay. It counts as toxicity, cell-based. As to conditions: pnt2, 0.2 µM.
Data set [1] can be described thus: Partition coefficient, logD of the compound. It counts as physicochemical. The following applies: octanol/water.
Data set [2] can be described thus: Solubility of the compound in PBS buffer. It counts as physicochemical.
The nature of data set [3]: Apparent permeability of the compound by PAMPA assay. It counts as ADME.
Data set [4] in a line: Metabolic stability in human liver microsome assessed as parent compound remaining measured at 10 mins. It counts as ADME. The following applies: liver microsomes, read-out: Stability.
A short description of data set [5]: Metabolic stability in human liver microsome assessed as parent compound remaining measured at 60 mins. It counts as ADME. As to conditions: liver microsomes, read-out: Stability.
Data set [6] can be described thus: Metabolic stability in mouse liver microsome assessed as parent compound remaining measured at 10 mins. It counts as ADME. As to conditions: liver microsomes, read-out: Stability.
Data set [7] in a line: Metabolic stability in mouse liver microsome assessed as parent compound remaining measured at 60 mins. It counts as ADME. The following applies: liver microsomes, read-out: Stability.
A short description of data set [8]: Inhibition of AR-V7 expression in human 22Rv1 cells. It counts as functional, cell-based, CWR22R.

Each structure is given as a SMILES string. In brackets after ≈: the same amount, converted by molar mass.

As to `CC(=O)O[C@@H](C)CCC(=O)N[C@@H]1C[C@H](C)[C@H](C/C=C(C)/C=C/[C@H]2OCC[C@@]3(CO3)[C@@H]2O)O[C@@H]1C`, the Activity result in the data set on PNT2 is “Non-Toxic”. In data set [1], the pH-dependent lipophilicity (logD) was found to be 3.1. For the same compound, the solubility in data set [2] is at least 95 µM. Moreover, the Papp in [3] amounted to 8.5 ×10⁻⁶ cm/s. Also, the results for the remaining at 10 min in data set [4] and in data set [6] were 6% and 5%, respectively. Further, the remaining at 1 h in data set [5] and in [7] was 0% each time.

On to `CC(=O)O[C@@H](C)/C=C(/C)C(=O)N[C@@H]1C[C@H](C)[C@H](C/C=C(C)/C=C/[C@H]2OCC[C@@]3(CO3)[C@@H]2O)O[C@@H]1C`, for which, in the data set with PNT2, the Activity result is on record as “Non-Toxic”. For the same compound, the pH-dependent lipophilicity (logD) in data set [1] is 3.6. This compound had a solubility in data set [2] of at least 95 µM. The Papp in data set [3] turned out to be 18.5 ×10⁻⁶ cm/s. For the same compound, the results for the remaining at 10 min in data set [4] and in data set [6] were 1% and 0%, respectively. Besides, the remaining at 1 h in [5] and in [7] was 0% throughout.

Turning to `CC(=O)O[C@@H](C)/C=C/C(=O)N[C@@H]1C[C@H](C)[C@H](C/C=C(C)/C=C/[C@H]2OCC[C@@]3(CO3)[C@@H]2O)O[C@@H]1C`, in data set [1], the logD was 3.2. In data set [2], this compound showed a solubility of 94.7 µM (≈ 45.2 µg/mL). The Papp in data set [3] was determined as 11.3 ×10⁻⁶ cm/s. The remaining at 10 min in data set [4] is 0%; in data set [6], 27%. The remaining at 1 h in data set [5] and in data set [7] was 0% throughout.

`CC(C)NCC(O)COc1cccc2ccccc12` (configuration not stated) [PROPRANOLOL]: the apparent permeability coefficient (Papp) in data set [3] was determined as 3.5 ×10⁻⁶ cm/s.

`CC(=O)O[C@@H](C)/C=C\C(=O)N[C@@H]1C[C@H](C)[C@H](C/C=C(C)/C=C/[C@H]2OCC[C@@]3(CO3)[C@@H]2O)O[C@@H]1C`: the logD in data set [1] was determined as 3.4. This compound also had a solubility in data set [2] of 95 µM (≈ 45.4 µg/mL). Moreover, the remaining at 10 min in [4] was determined as 1.7%; in data set [6] it was 0.3%. Moreover, the remaining at 1 h in data set [5] is 0%; in [7], 0.1%.

Compound `CO[C@]1(C)C[C@@]2(CO2)[C@H](O)[C@@H](/C=C/C(C)=C/C[C@@H]2O[C@H](C)[C@H](NC(=O)/C=C\[C@H](C)OC(C)=O)C[C@@H]2C)O1` came in with a logD in [1] of 3.8. In data set [2], this compound had a solubility of at least 95 µM. Besides, the values for the remaining at 10 min in data set [4] and in [6] were 32% and 2.5%, respectively. Also, the remaining at 1 h in [5] came out at 0.5%; in data set [7] it was 0%. This compound also had a half-inhibitory concentration (IC50) in data set [8] of 600 pM.
